Active and inactive are the calls of the source. The calls are words filed in the database; no cut-off is given here.
Target: Histone acetyltransferase GCN5 (Plasmodium falciparum (isolate 3D7)) (UniProt Q8IB67)
Assay: Inhibition of GCN5 in Plasmodium falciparum 3D7 assessed as reduction in H3K9 acetylation at 25 uM incubated for 15 mins measured by SDS-PAGE analysis

Chain of Histone acetyltransferase GCN5 (Plasmodium falciparum (isolate 3D7)) (Q8IB67 as listed by the source): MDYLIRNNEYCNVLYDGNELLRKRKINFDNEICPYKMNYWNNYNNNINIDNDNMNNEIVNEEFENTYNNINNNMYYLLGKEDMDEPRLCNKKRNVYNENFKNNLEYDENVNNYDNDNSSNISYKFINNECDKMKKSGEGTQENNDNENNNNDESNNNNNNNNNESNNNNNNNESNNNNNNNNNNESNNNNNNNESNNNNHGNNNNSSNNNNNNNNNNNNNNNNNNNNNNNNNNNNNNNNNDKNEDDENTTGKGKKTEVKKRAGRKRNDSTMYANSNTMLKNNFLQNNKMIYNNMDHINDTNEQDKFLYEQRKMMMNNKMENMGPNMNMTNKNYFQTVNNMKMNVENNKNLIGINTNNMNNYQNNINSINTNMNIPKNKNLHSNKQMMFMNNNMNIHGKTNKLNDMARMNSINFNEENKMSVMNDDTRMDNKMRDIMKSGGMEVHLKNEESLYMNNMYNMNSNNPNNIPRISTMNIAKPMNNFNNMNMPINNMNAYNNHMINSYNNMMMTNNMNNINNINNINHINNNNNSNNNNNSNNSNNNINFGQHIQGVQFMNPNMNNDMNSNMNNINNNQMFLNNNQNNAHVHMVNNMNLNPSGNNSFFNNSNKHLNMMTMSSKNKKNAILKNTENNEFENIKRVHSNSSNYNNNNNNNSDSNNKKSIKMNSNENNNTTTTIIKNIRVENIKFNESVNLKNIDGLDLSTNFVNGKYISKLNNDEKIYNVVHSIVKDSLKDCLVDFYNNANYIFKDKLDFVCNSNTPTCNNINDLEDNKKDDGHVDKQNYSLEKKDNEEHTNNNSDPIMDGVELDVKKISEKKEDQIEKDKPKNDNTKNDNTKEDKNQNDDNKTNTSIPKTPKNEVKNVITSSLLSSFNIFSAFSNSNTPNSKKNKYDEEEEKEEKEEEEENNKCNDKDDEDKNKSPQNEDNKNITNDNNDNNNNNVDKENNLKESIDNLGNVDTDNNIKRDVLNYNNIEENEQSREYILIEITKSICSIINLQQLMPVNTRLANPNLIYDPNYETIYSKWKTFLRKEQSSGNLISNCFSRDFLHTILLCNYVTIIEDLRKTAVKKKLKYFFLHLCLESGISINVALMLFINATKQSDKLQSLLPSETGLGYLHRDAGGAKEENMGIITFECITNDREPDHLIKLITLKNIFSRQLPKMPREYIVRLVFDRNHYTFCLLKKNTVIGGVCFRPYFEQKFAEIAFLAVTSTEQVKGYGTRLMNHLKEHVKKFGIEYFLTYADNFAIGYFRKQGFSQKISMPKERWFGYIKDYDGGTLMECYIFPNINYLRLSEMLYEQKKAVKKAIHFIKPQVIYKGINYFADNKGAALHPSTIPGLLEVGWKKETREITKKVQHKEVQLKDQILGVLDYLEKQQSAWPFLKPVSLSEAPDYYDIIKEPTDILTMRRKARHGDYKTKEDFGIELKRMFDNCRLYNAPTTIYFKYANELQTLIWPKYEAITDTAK

inhibition: Active
SMILES: CCCCCCCCCCCC1=C(O)C(=O)C=C(O)C1=O

— ChEMBL document CHEMBL4190226, “Designing novel inhibitors against histone acetyltransferase (HAT: GCN5) of Plasmodium falciparum” (Eur J Med Chem, 2017)
